# Measured values taken from ChEMBL document CHEMBL3400100, “Streptococcus mutans sortase A inhibitory metabolites from the flowers of Sophora japonica” (Bioorg Med Chem Lett, 2015).
# Experiments:
# [1] = Inhibition of Streptococcus mutans OMZ65 sortase A lacking N-terminal membrane anchor domain (1 to 40 amino acids) expressed in Escherichia coli TOP10 using Dabcyl-QALPETGEE-Edans substrate incubated for 1 hr by fluorescence spectrophotometry
# [2] = test system: Streptococcus mutans; test: Toxicity against Streptococcus mutans assessed as inhibition of microbial growth; format: organism-based; details: in vitro
# [3] = test system: Streptococcus mutans; test: Inhibition of sortase A in Streptococcus mutans NG8 assessed as reduction in saliva-induced bacterial aggregation at 58.6 to 234.4 uM by spectrophotometry
IC50 [1] [µM],inhibition [3],Molecule,MIC [2] [µM]
58.6,Dose-dependent effect,Cc1occc(=O)c1O[C@@H]1O[C@H](COC(=O)CC(C)(O)CC(=O)O)[C@@H](OC(=O)/C=C\c2ccc(O)cc2)[C@H](O)[C@H]1O (some centres not stated),> 345.9
91.5,–,COc1cc(/C=C/C(=O)CC(=O)/C=C/c2ccc(O)c(OC)c2)ccc1O [CURCUMIN],> 542.9
94.3,–,Cc1occc(=O)c1O[C@@H]1O[C@H](COC(=O)CC(C)(O)CC(=O)O)[C@@H](OC(=O)/C=C/c2ccc(O)cc2)[C@H](O)[C@H]1O (some centres not stated),> 345.9

# Continued, molecule first:
Molecule,IC50 [1] [µM],inhibition [3],MIC [2] [µM]
Para-Hydroxymercuribenzoic acid,112,–,–
C[C@@H]1O[C@@H](OC[C@H]2O[C@@H](Oc3c(-c4ccc(O)cc4)oc4cc(O)cc(O)c4c3=O)[C@H](O)[C@@H](O)[C@@H]2O)[C@H](O)[C@H](O)[C@H]1O [NICOTIFLOROSIDE],60.7,–,> 336.4
COc1cc(-c2oc3cc(O)cc(O)c3c(=O)c2O[C@@H]2O[C@H](CO[C@@H]3O[C@@H](C)[C@H](O)[C@@H](O)[C@H]3O)[C@@H](O)[C@H](O)[C@H]2O)ccc1O [NARCISSIN],62.1,–,> 320.2
